# Data taken from patent publication US8138119B2, “Alkoxyalkyl spirocyclic tetramic acids and tetronic acids” (Bayer Cropscience AG, priority 2005, dated 2012).
# Tests used:
# maize = assay: Profiling test, herbicidal pre-emergence action with safener: container trials with maize in the greenhouse, Ex. II-e-5 1 day prior to herbicide application; assay type: in vivo; details: 28 days after application, without safener
# Method: Seeds of monocotyledonous and dicotyledonous weed and crop plants are placed in sandy loam soil in wood fibre pots or in plastic pots and covered with soil. The pots are watered slightly, and the soil surface is then treated with various dosages of the test compounds, formulated as wettable powders (WP) or liquid (EC), at a water application rate of 300 l/ha (converted). The pots with the plants are cultivated in a greenhouse, during the vegetation period also outdoors outside of the greenhouse, under good growth conditions. 3-4 weeks after sowing and the treatment of the pots, the activity of the preparations is rated visually in comparison to untreated controls (herbicidal activity in percent (%): 100% activity=the plants have died, 0% activity=like control plants).
# (§1) If it is additionally to be tested as to whether safeners can improve the plant compatibility of test substances in the case of crop plants, the following options are used for applying the safener: • seeds of the crop plants are, before sowing, dressed with the safener substance (the amount of safener stated in percent, based on the weight of the seed) • before the application of the test substances, the pots of crop plants are sprayed with the safener at a certain application rate per hectare (usually 1 day before the application of the test substances) • the safener is applied together with the test substance as a tank mix (the amount of safener stated in g/ha or as a ratio, based on the herbicide).
# (§2) By comparing the effect of the test substances on crop plants without or with safener treatment, it is possible to assess the effect of the safener substance.
# cereal = assay: Profiling test, herbicidal post-emergence action with safener: container trials with cereal in a greenhouse, Mefenpyr 1 day prior to herbicide application; assay type: in vivo; details: without safener
# Method: Seeds of monocotyledonous and dicotyledonous weed and crop plants are placed in sandy loam soil in wood fibre pots or in plastic pots, covered with soil and cultivated in a greenhouse, during the vegetation period also outdoors outside of the greenhouse, under good growth conditions. 2-3 weeks after sowing, the test plants are treated at the one- to three-leaf stage. The test compounds, formulated as wettable powders (WP) or liquid (EC), are, in various dosages with a water application rate of 300 l/ha (converted), with wetting agent (0.2 to 0.3%) added, sprayed onto the plants and the surface of the soil. […]
# as §1, with “proper” for “pots of crop”
# as §2
# [1] = tested on: caterpillars of the armyworm (Spodoptera exigua); assay: Spodoptera exigua test (SPODEX); assay type: in vivo; details: 100 ppm, cabbage leaves dipped
# Method: (§3) Solvent: 7 parts by weight of dimethylformamide
# (§4) Emulsifier: 2 parts by weight of alkylaryl polyglycol ether
# To produce a suitable preparation of active compound, 1 part by weight of active compound is mixed with the stated amounts of solvent and emulsifier, and the concentrate is diluted with water to the desired concentration.
# Cabbage leaves (Brassica oleracea) are treated by being dipped into the active compound preparation of the desired concentration and populated with caterpillars of the armyworm (Spodoptera exigua) while the leaves are still moist.
# (§5) After the desired period of time, the kill in % is determined. 100% means that all caterpillars have been killed; 0% means that none of the caterpillars have been killed.
# [2] = tested on: caterpillars of the diamondback moth (Plutella xylostella); assay: Plutella test (PLUTMA); assay type: in vivo; details: 100 ppm, cabbage leaves dipped
# Method: as §3, §4
# (§6) To produce a suitable preparation of active compound, 1 part by weight of active compound is mixed with the stated amounts of solvent and emulsifier, and the concentrate is diluted with emulsifier-containing water to the desired concentration.
# Cabbage leaves (Brassica oleracea) are treated by being dipped into the active compound preparation of the desired concentration and populated with caterpillars of the diamondback moth (Plutella xylostella) while the leaves are still moist.
# as §5
# [3] = tested on: caterpillars of the armyworm (Spodoptera exigua, resistant strain); assay: Spodoptera exigua test; resistant strain (SPODEX R); assay type: in vivo; details: 100 ppm, cabbage leaves dipped
# Method: as §3, §4, §6
# Cabbage leaves (Brassica oleracea) are treated by being dipped into the active compound preparation of the desired concentration and populated with caterpillars of the armyworm (Spodoptera exigua, resistant strain) while the leaves are still moist.
# as §5
# [4] = Determination of the log P values by HPLC on a reversed-phase column (C18); assay type: physicochemical; details: compounds of the formula (III), cis/trans isomer mixture
# Method: The log P values given in the table were determined in accordance with EEC Directive 79/831 Annex V.A8 by HPLC (High Performance Liquid Chromatography) on a reversed-phase column (C18). Temperature: 43° C.
# Mobile phases for the determination in the acidic range (pH 2.3): 0.1% aqueous phosphoric acid, acetonitrile; linear gradient from 10% acetonitrile to 90% acetonitrile
# Calibration was carried out using unbranched alkan-2-ones (with 3 to 16 carbon atoms) whose log P values are known (determination of the log P values by the retention times using linear interpolation between two successive alkanones).
# [5] = 28 days after application, 12.5 g of a.i./ha
# [6] = 28 days after application, 25 g of a.i./ha
# [7] = 28 days after application, 11 g of a.i./ha
# [8] = 28 days after application, 23 g of a.i./ha
# [9] = 28 days after application, 46 g of a.i./ha
# [10] = 28 days after application, 91 g of a.i./ha
compound,measurement,setting,value
"CCOC(=O)OC1=C(c2c(Br)cc(C)cc2CC)C(=O)NC12CCC(COC)CC2 (single isomer, unassigned) [Example I-1-c-6]",Maize - Cecilia observed (%),maize; 12.5 g of a.i./ha,60%
"CCOC(=O)OC1=C(c2c(CC)cc(Cl)cc2OC)C(=O)NC12CCC(COC)CC2 (single isomer, unassigned) [Example I-1-c-7]",Maize - Arsenal observed (%),maize; 25 g of a.i./ha,60%
"CCc1cc(C)cc(Br)c1C1=C(O)C2(CCC(COC)CC2)NC1=O (single isomer, unassigned) [Example I-1-a-3]",Summer barley observed (%),cereal; [5],20%
same,Summer barley observed (%),cereal; [6],60%
same,Summer wheat observed (%),"cereal; 10 days after application, 12.5 g of a.i./ha",20%
same,Summer wheat observed (%),"cereal; 10 days after application, 25 g of a.i./ha",40%
"CCOC(=O)OC1=C(c2c(C)cc(C)cc2C)C(=O)NC12CCCC(COC)C2 (single isomer, unassigned) [Example I-1-c-9]",Maize - Cecilia observed (%),maize; 100 g of a.i./ha,50%
"CCc1cc(Cl)cc(OC)c1C1=C(OC(=O)COC)C2(CCCC(COC)C2)NC1=O (single isomer, unassigned) [Example I-1-b-6]",Summer barley observed (%),cereal; [5],70%
"COCC1CCC2(CC1)NC(=O)C(c1cc(-c3ccc(Cl)cc3)ccc1C)=C2O (single isomer, unassigned) [Example I-1-a-5]",efficacy (kill of caterpillars),[1],≥ 80%
same,efficacy (kill of caterpillars),[2],≥ 80%
same,efficacy (kill of caterpillars),[3],≥ 80%
"CCCOCC1CCCC2(C1)NC(=O)C(c1c(Br)cc(C)cc1CC)=C2O (single isomer, unassigned) [Example I-1-a-12]",Summer barley observed (%),cereal; [7],10%
same,Summer barley observed (%),cereal; [8],20%
same,Summer barley observed (%),cereal; [9],30%
same,Summer barley observed (%),cereal; [10],60%
same,Summer wheat observed (%),cereal; [7],10%
same,Summer wheat observed (%),cereal; [8],15%
same,Summer wheat observed (%),cereal; [9],20%
same,Summer wheat observed (%),cereal; [10],30%
"CCc1cc(Cl)cc(OC)c1C1=C(O)C2(CCC(COC)CC2)NC1=O (single isomer, unassigned) [Example I-1-a-4]",Maize - Arsenal observed (%),maize; 12.5 g of a.i./ha,40%
same,Maize - Arsenal observed (%),maize; 25 g of a.i./ha,65%
same,Summer barley observed (%),cereal; [6],50%
"CCc1cc(C)cc(Br)c1C1=C(O)C2(CCCC(COC)C2)NC1=O (single isomer, unassigned) [Example I-1-a-8]",Summer wheat observed (%),cereal; [5],90%
same,Summer wheat observed (%),cereal; [6],95%
CCOC(=O)C1(OC(=O)Cc2c(CC)cc(Br)cc2CC)CCCC(CCOC)C1 (mixture of isomers) [III-23],log P,[4]; first value of the cell,5.69
same,log P,[4]; second value of the cell,5.81
